Assay results from PubChem BioAssay (NCI).
Values joined by “and” are separate entries in the source; they are usually repeats but may differ in a detail not shown here. Equal entries are not always repeated.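 Cells were grown in 96-well plates and exposed to each compound for 48 hours at five concentrations; endpoints were interpolated linearly between bracketing concentrations, or set to the highest concentration if not reached. GI50 is the concentration that inhibits growth by half. TGI denotes the concentration required for complete inhibition of growth.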

Assays:
Experiment in all cases: NCI-60 cell line screen, 48 h
NCI-H460 lung = system: NCI-H460 lung
SK-OV-3 ovarian = system: SK-OV-3 ovarian
TK-10 renal = system: TK-10 renal
COLO 205 colon = system: COLO 205 colon
KM12 colon = system: KM12 colon
IGROV1 ovarian = system: IGROV1 ovarian
K-562 leukemia = system: K-562 leukemia
OVCAR-8 ovarian = system: OVCAR-8 ovarian
SNB-75 CNS = system: SNB-75 CNS
RXF 393 renal = system: RXF 393 renal

SMILES	TGI (NCI-H460 lung)	TGI (SK-OV-3 ovarian)	TGI (TK-10 renal)	TGI (COLO 205 colon) [µM]	TGI (KM12 colon)	TGI (IGROV1 ovarian) [µM]	TGI (K-562 leukemia) [µM]	TGI (OVCAR-8 ovarian)	TGI (SNB-75 CNS) [µM]	TGI (RXF 393 renal)	GI50 (NCI-H460 lung) [µM]	GI50 (TK-10 renal) [µM]	GI50 (SNB-75 CNS) [µM]	GI50 (COLO 205 colon) [µM]	GI50 (KM12 colon) [µM]	GI50 (IGROV1 ovarian) [µM]	GI50 (K-562 leukemia) [µM]	GI50 (OVCAR-8 ovarian) [µM]	GI50 (SK-OV-3 ovarian) [µM]
O=C1C=CC=CC2CC=C[C@@H](O)C12 (stereo partly drawn)	38 µM	> 100 µM	> 100 µM	39.5	24.5 µM	> 100	> 100	> 100 µM											
CCOC(=O)C1=C(c2ccccc2)N(C)c2ccccc2S1	63.6 µM	> 100 µM	> 100 µM	> 100		> 100	> 100	> 100 µM	> 100										
O=C(Nc1ccc(Cl)cc1Cl)C(=O)C(C(=O)c1ccc2ccccc2c1)C1OC(=O)c2ccccc21 (stereo not drawn)	17.3 µM	> 100 µM		57	31.9 µM	57.7		34.6 µM		11.7 µM									
O=C(Nc1cccs1)c1c(O)[nH]c(=S)[nH]c1=O	> 100 µM	> 100 µM	> 100 µM	> 100	> 100 µM	> 100	> 100	> 100 µM											
O=C(O)COc1ccc(O)c2c1C(=O)CCCC2=O	> 100 µM	> 100 µM	> 100 µM	> 100	> 100 µM	> 100	> 100	> 100 µM											
COc1cc(CCN)c2c(c1OC)SSSSS2	2.11 µM		3.03 µM	0.0783	3.09 µM	1.55	> 100	2.71 µM	2.87		0.767	1.42	1.5	0.0184	1.64	0.336	0.629	1.22	
CCCn1c(SC)nc(COC(=O)NC)c1COC(=O)NC	> 100 µM	> 100 µM	> 100 µM	> 100	> 100 µM	> 100	> 100	> 100 µM	> 100										
CCCCC1CC(c2cccc([N+](=O)[O-])c2)=NO1 (stereo not drawn)	> 100 µM	> 100 µM	> 100 µM	> 100	> 100 µM	> 100	> 100	> 100 µM	> 100										
O=c1[nH]c(=O)n([C@@H]2C[C@H](CO)[C@H](O)C2)cc1/C=C/Br	> 100 µM	> 100 µM	> 100 µM		> 100 µM	> 100	> 100	> 100 µM	> 100										
O=C([CH-]C(=O)c1ccccc1)c1ccccc1.O=C([CH-]C(=O)c1ccccc1)c1ccccc1.O=C([CH-]C(=O)c1ccccc1)c1ccccc1.[Nd+3].[OH3+]	> 100 µM	29.3 µM	74.7 µM	25.6	37.9 µM	49.8	16.7	22.1 µM	7.23		3.41	8.51	2.91	10.6	6.02	6.72	2.8	3.3	5.58
OCCCOC(c1ccccc1)(c1ccccc1)c1ccccc1	> 100 µM	> 100 µM	> 100 µM	> 100	> 100 µM	> 100	> 100	> 100 µM	62										
CC[C@@]1(O)C[C@H](OC2CC(N(C)C)C(OC3CC(O)C(OC4CCC(=O)C(C)O4)C(C)O3)C(C)O2)c2c(cc3c(c2O)C(=O)c2c(O)cccc2C3=O)[C@H]1C(=O)OC (stereo partly drawn)	0.06 µM and 0.0662 µM	1.31 µM and 5.14 µM	0.932 µM and 0.373 µM		0.519 µM and 0.56 µM			0.956 µM and 0.404 µM		0.0345 µM and 0.124 µM									
Cc1ccc(S(=O)(=O)NCCNC2=CC(=O)c3nc4ccccc4c4ccnc2c34)cc1	56.5 µM	> 100 µM	40.1 µM	52.2	34.6 µM	51.9	> 100	72.7 µM	41.3		15.7	20.2	18.3	14.3	16.1	19.9	25	19.5	33.1
Cn1nc(-c2ccccc2)c(C(=O)/C=C/c2ccc(F)cc2)c(N2CCCCC2)c1=O	18.1 µM	70.1 µM	69.9 µM	14.1		38.2	13	75.6 µM		9.86 µM									
COc1cc(/C=C\c2ccc(C)cc2)cc(OC)c1OC	0.232 µM		> 100 µM	0.144		> 100	11.7					25.7	0.0149						
C1C[OH+]CC[OH+]CCNCC[OH+]CC[OH+]CCN1.[Cl-].[Pt+4]		> 100 µM	> 100 µM	> 100	> 100 µM	> 100	> 100	> 100 µM	> 100			> 100	> 100	> 100	> 100	> 100	> 100	> 100	> 100
